A short description of one data set: in vivo. Type of data set: in vivo, SD rats. To be noted: rats; for concentration at 5 min / concentration at 15 min / concentration at 30 min / concentration at 1 h / concentration at 2 h / concentration at 4 h: SD, rat, in vivo, iv, average, read-out: Drug concentrations in brain tissue; for concentration at 5 min: 5 min after administration; for concentration at 15 min: 15 min after administration; for concentration at 30 min: 30 min after administration; for concentration at 1 h: 1 h after administration; for concentration at 2 h: 2 h after administration; for concentration at 4 h: 4 h after administration. The protocol:
1. Comparative Assay for the Distribution of Compound XA-1-7 and Dipropofol (3,3′,5,5′-Tetraisopropyl Biphenyl-4,4′-Diol) in the Brain Tissue of Rats after Intravenous Administration
72 SD rats, each weighing 200 to 220 g, were randomly divided into 12 groups (6 per group at a time), and fasted for 12 hours before administration. Compound XA-1-7 or dipropofol was injected intravenously at a dose of 45 mg/kg, and the rats were sacrificed at 5 min, 15 min, 30 min, 1 h, 2 h, and 4 h after administration, immediately after which the brain tissue was removed, rinsed with ice-cold distilled water, blotted up, and cryopreserved at −40° C. The concentrations of Compound XA-1-7 or dipropofol in the brain tissue of rats at different time points after administration were measured by LC-MS/MS.

Data set [1] has as its target GABAA, Chloride Channel, TBPS. As to the kind of experiment: Radioligand ([35S]TBPS)-receptor competitive binding assay for GABAA receptor. Also on record: species or system Rat. Particulars: for IC50: [35S]TBPS, test concentration 30, 10, 3, 1, 0.3 uM; for Affinity for the GABAA receptor: result in words, compared with dipropofol.

Results on four compounds are retold here after US12121498B2 (priority 2018, dated 2024).

Turning to `CCCc1cc(-c2cc(C(C)C)c(O)c(C(C)C)c2)cc(CCC)c1O` [Compound 1, 3,5-diisopropyl-3′,5′-dipropyl-[1,1′-biphenyl]-4,4′-diol], in “in vivo” (i.v. 45 mg/kg), the concentration at 5 min was found to be 37600 ng/g, the concentration at 15 min worked out at 39600 ng/g, the concentration at 30 min was 38100 ng/g and the concentration at 1 h came to 33900 ng/g. Moreover, in the data set “in vivo” (i.v. 45 mg/kg), the concentration at 2 h stood at 24600 ng/g, the concentration at 4 h came to 6870 ng/g, the “AUC0-4 h in the brain tissue relative to that of the dipropofol” value is “about 1.36 times” and the “Peak time of the concentration in the brain tissue” value stood at 15 min. Also, the “Concentration in the brain tissue relative to that of the dipropofol” value in “in vivo” (5 minutes after intravenous injection, 45 mg/kg) was “about 3 times”. For the same compound, the “Delivering speed into the brain and level in the brain compared with dipropofol” value in the data set “in vivo” (intravenous administration at the same dosage, result in words) is “significantly higher”. Also, in data set [1], the IC50 was determined as 1820 nM and the “Affinity for the GABAA receptor” value was “high affinity”.
Take `CCCc1cc(-c2cc(C(C)C)c(O)c(C(C)C)c2)cc(C(C)C)c1O` [Compound 2, 3,3′,5-triisopropyl-5′-propyl-biphenyl-4,4′-diol]: in data set [1], the IC50 was 2110 nM and the “Affinity for the GABAA receptor” value was “high affinity”.
With `CCCc1cc(-c2cc(CCC)c(O)c(C(C)C)c2)cc(CCC)c1O` [Compound 3, 3-isopropyl-3′,5,5′-tripropyl-biphenyl-4,4′-diol], in data set [1], the IC50 came out at 2690 nM and the “Affinity for the GABAA receptor” value is “high affinity”.
Consider `CC(C)c1cc(-c2cc(C(C)C)c(O)c(C(C)C)c2)cc(C(C)C)c1O` [Dipropofol, 3,3′,5,5′-tetraisopropylbiphenyl-4,4′-diol, reference compound], for which, in the data set “in vivo” (i.v. 45 mg/kg), the concentration at 5 min is 12800 ng/g, the concentration at 15 min was found to be 24100 ng/g, the concentration at 30 min worked out at 32500 ng/g and the concentration at 1 h was determined as 26600 ng/g. Further, in the data set “in vivo” (i.v. 45 mg/kg), the concentration at 2 h worked out at 17900 ng/g, the concentration at 4 h was determined as 5520 ng/g and the “Peak time of the concentration in the brain tissue” value worked out at 30 min. The compound also yielded an IC50 in data set [1] of 2060 nM.

What is called IC50 is the concentration needed to halve the response being measured.
